Laboratory results as given in patent publication US20180057505A1, “BICYCLIC HETEROARYL COMPOUNDS USEFUL AS INHIBITORS OF THE PAR-2 SIGNALING PATHWAY” (VERTEX PHARMACEUTICALS INCORPORATED, priority 2015, published 2018).

Assays:
Type in all cases: cell-based
PAR2 (HT-29 cells) [1] = biological target: T1, PAR2 (HT-29 cells) (Homo sapiens, UniProt P55085); assay: Ca FLIPR TETRA assay, ANTAGONIST mode, activator 8 μM SLIGKV; conditions: HT-29 cells, activator 8 μM SLIGKV; maximal antagonist concentration per Method (A: 0.1, 1 or 2 μM; B: 50 μM)
T1 construct: host or cells: HT-29
T1 sequence (P55085 26-397): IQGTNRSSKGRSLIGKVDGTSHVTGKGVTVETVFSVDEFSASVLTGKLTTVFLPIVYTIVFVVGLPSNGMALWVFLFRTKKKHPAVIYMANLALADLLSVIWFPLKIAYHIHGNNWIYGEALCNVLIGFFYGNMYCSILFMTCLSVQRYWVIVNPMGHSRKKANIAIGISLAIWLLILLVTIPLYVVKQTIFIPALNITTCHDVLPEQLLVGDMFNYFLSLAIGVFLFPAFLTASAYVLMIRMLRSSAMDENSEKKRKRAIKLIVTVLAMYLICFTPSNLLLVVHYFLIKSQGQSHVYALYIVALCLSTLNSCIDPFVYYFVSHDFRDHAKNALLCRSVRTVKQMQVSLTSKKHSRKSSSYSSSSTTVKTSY
Procedure, shortened: (§1)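 Antagonist-mode FLIPR Tetra Ca2+ read: dye-loaded HT-29 cells preincubated 30 min at r.t. with compound (first read checks agonism alone), then challenged with final 3.1 U/mL trypsin, 8 μM SLIGKV, 1 U/mL thrombin or 0.6 μM UTP. Cells plated overnight in 1% FBS McCoy's; Calcium 5 loading 45 min 37 °C plus 15 min r.t.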

PAR2 (HT-29 cells) [2] = biological target: T1, PAR2 (HT-29 cells); assay: Ca FLIPR TETRA assay, ANTAGONIST mode, activator 3.1 U/mL trypsin; conditions: HT-29 cells, activator 3.1 U/mL trypsin; maximal antagonist concentration per Method (A: 0.1, 1 or 2 μM; B: 50 μM)
Procedure, shortened: as §1

[3] = tested on: Thrombin-stimulated Ca2+ response in HT-29 cells; assay: Ca FLIPR TETRA assay, ANTAGONIST mode, activator 1 U/mL Thrombin; conditions: Homo sapiens; HT-29 cells, activator 1 U/mL Thrombin
Procedure, shortened: as §1

[4] = tested on: UTP-stimulated Ca2+ response in HT-29 cells; assay: Ca FLIPR TETRA assay, ANTAGONIST mode, activator 0.6 μM UTP; conditions: Homo sapiens; HT-29 cells, activator 0.6 μM UTP
Procedure, shortened: as §1

SMILES	IC50 (PAR2 (HT-29 cells) [1]) [nM]	IC50 (PAR2 (HT-29 cells) [2]) [nM]	IC50 [3] [nM]	IC50 [4] [nM]
Cc1cc(C(=O)N2CCN(C(=O)c3cc4nc(-c5ccc(Cl)cc5)cc(C(C)(C)C)c4o3)C(C)(C)C2)[nH]n1 [Example I-177]	1.4	2	> 1000	> 1000
Cc1nnc(C(=O)N2CCN(C(=O)c3cc4nc(-c5ccc(Cl)cc5)cc(C(C)(C)C)c4o3)C(C)(C)C2)[nH]1 [Example I-178]	0.7	1	> 1000	> 1000
Cc1nnc(C(=O)N2CCN(C(=O)c3cc4nc(-c5ccc(Cl)cc5)cc(C(C)(C)C)c4o3)C(C)(C)C2)o1 [Example I-179]	2.8	5.5	> 1000	> 1000
Cc1ncc(C(=O)N2CCN(C(=O)c3cc4nc(-c5ccc(Cl)cc5)cc(C(C)(C)C)c4o3)C(C)(C)C2)[nH]1 [Example I-180]	1.1	2.3	> 1000	> 1000
CC(C)(C)c1cc(-c2ccc(Cl)c(F)c2)nc2cc(C(=O)N3CCN(C(=O)c4ncn[nH]4)CC3(C)C)oc12 [Example I-181]	0.9	1.6	> 1000	> 1000
CC(C)(C)c1cc(-c2ccc(F)cc2)nc2cc(C(=O)N3CCN(c4cn[nH]c4)C(=O)C3(C)C)oc12 [Example I-182]	1.1	5.8	> 1000	> 1000
Cc1nnc(C(=O)N2CCN(C(=O)c3cc4nc(-c5ccc(F)cc5)cc(C(C)(C)C)c4o3)C(C)(C)C2)o1 [Example I-183]	2.6	9.1	> 1000	> 1000
CC(C)(C)c1cc(-c2ccc(F)cc2)nc2cc(C(=O)N3CCN(C(=O)c4ncccn4)CC3(C)C)oc12 [Example I-184]	5.7	12	> 1000	> 1000
CC(C)(C)c1cc(-c2ccc(F)cc2)nc2cc(C(=O)N3CCN(C(=O)c4ccccn4)CC3(C)C)oc12 [Example I-185]	1.2	5.1	> 1000	> 1000
Cc1cc(C(=O)N2CCN(C(=O)c3cc4nc(-c5ccc(F)cc5)cc(C(C)(C)C)c4o3)C(C)(C)C2)no1 [Example I-186]	0.7	1	> 1000	> 1000
CC(C)(C)c1cc(-c2ccc(F)cc2)nc2cc(C(=O)N3CCN(C(=O)c4n[nH]c(=O)[nH]4)CC3(C)C)oc12 [Example I-187]	10	20	> 1000	> 1000
COC(=O)C1CC(C(=O)N2CCN(C(=O)c3cc4nc(-c5ccc(F)cc5)cc(C(C)(C)C)c4o3)C(C)(C)C2)C1 (centres unmarked) [Example I-188]	3	6	> 1000	> 1000
CC(C)(C)c1cc(-c2ccc(F)cc2)nc2cc(C(=O)N3CCN(C(=O)C4CC(C(=O)O)C4)CC3(C)C)oc12 (centres unmarked) [Example I-189]	17	28	> 1000	> 1000
COC(=O)C12CC(C(=O)N3CCN(C(=O)c4cc5nc(-c6ccc(F)cc6)cc(C(C)(C)C)c5o4)C(C)(C)C3)(C1)C2 [Example I-190]	11	13	520	760
CC(C)(C)c1cc(-c2ccc(F)cc2)nc2cc(C(=O)N3CCN(C(=O)C45CC(C(=O)O)(C4)C5)CC3(C)C)oc12 [Example I-191]	403	713	> 1000	> 1000
CC(C)(C)c1cc(-c2ccc(F)cc2)nc2cc(C(=O)N3CCN(C(=O)c4ccc(C(=O)O)cc4)CC3(C)C)oc12 [Example I-192]	14	13	> 1000	> 1000
CC(C)(C)c1cc(-c2ccc(F)cc2)nc2cc(C(=O)N3CCN(C(=O)C4(C(=O)O)CC4)CC3(C)C)oc12 [Example I-193]	260	190	> 1000	> 1000
